Read-outs that look alike come from different tables or passages of the source. Blank lines part the entries; values can stand above or below the compound they belong to.
Columns and labels:
Assay in all cases: biochemical
Parameters in all cases: species or system mixed lysate of K562, MV4-11, THP-1, NCI-H1155
[1] = target: Cyclin-dependent kinase 19 ; CDK19 ; Q9BWU1 (Homo sapiens, UniProt Q9BWU1)
[2] = target: Isoform 2 of Cyclin-dependent kinase 17 ; CDK17 ; Q00537-2 (Homo sapiens, UniProt Q00537)
[3] = target: High affinity nerve growth factor receptor ; NTRK1 ; P04629 (Homo sapiens, UniProt P04629)
[4] = target: Cyclin-dependent kinase 10 ; CDK10 ; Q15131 (Homo sapiens, UniProt Q15131)
[5] = target: Cyclin-dependent kinase 8 ; CDK8 ; P49336 (Homo sapiens, UniProt P49336)
[6] = target: Cyclin-dependent-like kinase 5 ; CDK5 ; Q00535 (Homo sapiens, UniProt Q00535)
[7] = target: Mast/stem cell growth factor receptor Kit ; KIT ; P10721 (Homo sapiens, UniProt P10721)
[8] = target: Calcium/calmodulin-dependent protein kinase kinase 2 ; CAMKK2 ; Q96RR4 (Homo sapiens, UniProt Q96RR4)
[9] = target: Isoform 4 of TRAF2 and NCK-interacting protein kinase ; TNIK ; Q9UKE5-4 (Homo sapiens, UniProt Q9UKE5)
[10] = target: Cyclin-dependent kinase 1 ; CDK1 ; P06493 (Homo sapiens, UniProt P06493)
[11] = target: Epithelial discoidin domain-containing receptor 1 ; DDR1 ; Q08345 (Homo sapiens, UniProt Q08345)
[12] = target: Isoform 2 of Glycogen synthase kinase-3 beta ; GSK3B ; P49841-2 (Homo sapiens, UniProt P49841)
[13] = target: Cyclin-dependent kinase 2 ; CDK2 ; P24941 (Homo sapiens, UniProt P24941)
[14] = target: Glycogen synthase kinase-3 alpha ; GSK3A ; P49840 (Homo sapiens, UniProt P49840)
[15] = target: T1, Interleukin-1 receptor-associated kinase 3 ; IRAK3 ; Q9Y616 (Homo sapiens, UniProt Q9Y616)
T1 sequence (Q9Y616 1-596): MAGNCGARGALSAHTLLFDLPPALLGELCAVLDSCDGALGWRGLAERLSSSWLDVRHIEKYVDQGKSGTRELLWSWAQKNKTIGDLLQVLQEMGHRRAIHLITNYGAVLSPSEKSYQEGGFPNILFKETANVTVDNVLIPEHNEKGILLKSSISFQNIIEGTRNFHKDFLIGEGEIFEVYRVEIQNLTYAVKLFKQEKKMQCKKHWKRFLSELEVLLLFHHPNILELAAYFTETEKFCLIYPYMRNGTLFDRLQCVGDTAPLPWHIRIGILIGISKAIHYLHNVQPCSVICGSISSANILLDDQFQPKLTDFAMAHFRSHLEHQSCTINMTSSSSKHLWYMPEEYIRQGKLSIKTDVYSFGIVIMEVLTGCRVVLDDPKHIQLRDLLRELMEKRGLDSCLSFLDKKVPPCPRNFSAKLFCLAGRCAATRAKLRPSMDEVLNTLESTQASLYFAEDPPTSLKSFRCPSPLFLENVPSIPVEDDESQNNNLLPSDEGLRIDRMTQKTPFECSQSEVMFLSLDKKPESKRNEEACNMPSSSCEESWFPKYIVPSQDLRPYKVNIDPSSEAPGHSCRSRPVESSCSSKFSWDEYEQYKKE

[16] = target: Cyclin-dependent kinase 7 ; CDK7 ; P50613 (Homo sapiens, UniProt P50613)
[17] = read-out: BAY-1251152 (10 µM) / %Intensity relative to DMSO
[18] = read-out: BAY-1143572 (10 µM) / %Intensity relative to DMSO

Sequence of Cyclin-dependent kinase 8 ; CDK8 ; P49336 (P49336 whole entry, one chain of several): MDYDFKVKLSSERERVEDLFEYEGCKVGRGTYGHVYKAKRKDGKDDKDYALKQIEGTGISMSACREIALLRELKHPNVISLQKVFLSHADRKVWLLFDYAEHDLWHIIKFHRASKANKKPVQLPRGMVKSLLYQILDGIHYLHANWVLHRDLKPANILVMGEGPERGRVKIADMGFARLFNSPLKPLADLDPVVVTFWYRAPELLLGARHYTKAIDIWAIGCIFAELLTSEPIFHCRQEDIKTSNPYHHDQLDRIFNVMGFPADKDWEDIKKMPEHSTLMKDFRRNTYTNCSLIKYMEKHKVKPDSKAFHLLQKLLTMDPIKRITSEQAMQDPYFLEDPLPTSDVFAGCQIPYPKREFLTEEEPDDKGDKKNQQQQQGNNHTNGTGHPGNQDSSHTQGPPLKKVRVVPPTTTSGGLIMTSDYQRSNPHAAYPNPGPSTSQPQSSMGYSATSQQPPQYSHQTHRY
Sequence of Isoform 4 of TRAF2 and NCK-interacting protein kinase ; TNIK ; Q9UKE5-4 (Q9UKE5 whole entry, canonical isoform, one chain of several): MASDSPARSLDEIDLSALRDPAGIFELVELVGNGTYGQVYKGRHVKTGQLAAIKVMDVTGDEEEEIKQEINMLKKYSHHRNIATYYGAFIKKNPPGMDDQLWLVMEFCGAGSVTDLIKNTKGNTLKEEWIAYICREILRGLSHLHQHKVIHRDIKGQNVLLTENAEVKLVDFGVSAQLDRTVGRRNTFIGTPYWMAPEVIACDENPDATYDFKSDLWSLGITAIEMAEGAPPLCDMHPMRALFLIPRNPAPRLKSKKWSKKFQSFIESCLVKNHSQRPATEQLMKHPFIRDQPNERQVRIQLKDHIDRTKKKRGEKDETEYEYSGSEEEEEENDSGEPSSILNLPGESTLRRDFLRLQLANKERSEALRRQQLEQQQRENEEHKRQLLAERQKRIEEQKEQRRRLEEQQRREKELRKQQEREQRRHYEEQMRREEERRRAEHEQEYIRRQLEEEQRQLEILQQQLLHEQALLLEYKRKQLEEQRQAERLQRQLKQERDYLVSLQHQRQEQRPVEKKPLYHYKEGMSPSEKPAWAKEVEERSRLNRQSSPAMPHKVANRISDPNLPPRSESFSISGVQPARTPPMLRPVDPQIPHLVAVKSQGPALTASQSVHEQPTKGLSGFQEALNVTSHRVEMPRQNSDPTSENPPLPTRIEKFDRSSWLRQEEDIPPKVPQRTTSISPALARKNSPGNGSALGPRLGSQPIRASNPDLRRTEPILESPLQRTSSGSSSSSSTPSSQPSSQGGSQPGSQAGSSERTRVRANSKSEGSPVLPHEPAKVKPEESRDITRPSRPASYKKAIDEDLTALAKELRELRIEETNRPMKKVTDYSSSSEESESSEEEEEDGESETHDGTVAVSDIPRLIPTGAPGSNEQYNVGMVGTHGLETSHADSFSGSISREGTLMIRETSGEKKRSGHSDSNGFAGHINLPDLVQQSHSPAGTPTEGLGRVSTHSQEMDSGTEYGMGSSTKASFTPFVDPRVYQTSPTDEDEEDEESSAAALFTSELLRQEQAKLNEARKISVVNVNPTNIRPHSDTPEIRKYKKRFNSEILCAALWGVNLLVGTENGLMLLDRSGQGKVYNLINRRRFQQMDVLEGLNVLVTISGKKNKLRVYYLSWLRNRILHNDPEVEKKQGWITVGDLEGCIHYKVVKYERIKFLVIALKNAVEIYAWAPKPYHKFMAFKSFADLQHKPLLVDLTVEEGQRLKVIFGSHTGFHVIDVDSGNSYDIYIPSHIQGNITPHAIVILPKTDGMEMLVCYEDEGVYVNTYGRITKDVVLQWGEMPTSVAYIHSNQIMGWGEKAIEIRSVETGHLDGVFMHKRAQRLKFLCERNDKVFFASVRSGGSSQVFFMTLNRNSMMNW
Sequence of Glycogen synthase kinase-3 alpha ; GSK3A ; P49840 (P49840 whole entry): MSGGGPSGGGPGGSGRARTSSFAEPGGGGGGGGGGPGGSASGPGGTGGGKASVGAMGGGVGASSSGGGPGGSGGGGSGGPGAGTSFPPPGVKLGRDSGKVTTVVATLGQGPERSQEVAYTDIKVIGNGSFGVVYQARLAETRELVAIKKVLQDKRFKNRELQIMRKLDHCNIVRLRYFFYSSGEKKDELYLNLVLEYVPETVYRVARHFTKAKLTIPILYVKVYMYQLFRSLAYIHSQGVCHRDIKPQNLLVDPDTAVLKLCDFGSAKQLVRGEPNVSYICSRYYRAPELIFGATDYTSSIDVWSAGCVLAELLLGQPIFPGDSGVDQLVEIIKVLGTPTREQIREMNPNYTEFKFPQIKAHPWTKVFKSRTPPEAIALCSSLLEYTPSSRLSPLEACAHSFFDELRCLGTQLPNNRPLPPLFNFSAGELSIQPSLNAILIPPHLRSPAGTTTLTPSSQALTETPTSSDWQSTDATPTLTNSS
Sequence of Cyclin-dependent kinase 19 ; CDK19 ; Q9BWU1 (Q9BWU1 whole entry, canonical isoform, one chain of several): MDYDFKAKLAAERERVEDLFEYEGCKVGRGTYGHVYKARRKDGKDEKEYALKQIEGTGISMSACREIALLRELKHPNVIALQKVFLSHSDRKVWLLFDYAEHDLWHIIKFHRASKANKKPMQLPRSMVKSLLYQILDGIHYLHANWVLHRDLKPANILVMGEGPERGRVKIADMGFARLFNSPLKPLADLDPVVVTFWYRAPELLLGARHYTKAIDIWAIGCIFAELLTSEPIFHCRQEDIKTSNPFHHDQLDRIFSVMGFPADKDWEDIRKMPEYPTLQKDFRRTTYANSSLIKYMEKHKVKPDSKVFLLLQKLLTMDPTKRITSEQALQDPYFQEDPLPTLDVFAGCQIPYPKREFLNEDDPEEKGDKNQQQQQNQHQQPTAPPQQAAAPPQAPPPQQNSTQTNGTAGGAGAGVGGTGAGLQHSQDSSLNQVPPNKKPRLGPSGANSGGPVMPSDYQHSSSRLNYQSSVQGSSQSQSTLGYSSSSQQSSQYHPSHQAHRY
Sequence of Cyclin-dependent-like kinase 5 ; CDK5 ; Q00535 (Q00535 whole entry, one chain of several): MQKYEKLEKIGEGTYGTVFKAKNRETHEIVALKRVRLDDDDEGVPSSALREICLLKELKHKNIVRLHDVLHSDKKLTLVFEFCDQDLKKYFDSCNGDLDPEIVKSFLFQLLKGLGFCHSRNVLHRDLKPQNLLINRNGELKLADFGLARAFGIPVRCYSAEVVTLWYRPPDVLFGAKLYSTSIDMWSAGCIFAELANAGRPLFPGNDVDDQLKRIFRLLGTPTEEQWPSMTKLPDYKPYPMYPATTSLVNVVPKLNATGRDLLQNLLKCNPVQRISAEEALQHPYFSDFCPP
Sequence of Calcium/calmodulin-dependent protein kinase kinase 2 ; CAMKK2 ; Q96RR4 (Q96RR4 whole entry, canonical isoform, one chain of several): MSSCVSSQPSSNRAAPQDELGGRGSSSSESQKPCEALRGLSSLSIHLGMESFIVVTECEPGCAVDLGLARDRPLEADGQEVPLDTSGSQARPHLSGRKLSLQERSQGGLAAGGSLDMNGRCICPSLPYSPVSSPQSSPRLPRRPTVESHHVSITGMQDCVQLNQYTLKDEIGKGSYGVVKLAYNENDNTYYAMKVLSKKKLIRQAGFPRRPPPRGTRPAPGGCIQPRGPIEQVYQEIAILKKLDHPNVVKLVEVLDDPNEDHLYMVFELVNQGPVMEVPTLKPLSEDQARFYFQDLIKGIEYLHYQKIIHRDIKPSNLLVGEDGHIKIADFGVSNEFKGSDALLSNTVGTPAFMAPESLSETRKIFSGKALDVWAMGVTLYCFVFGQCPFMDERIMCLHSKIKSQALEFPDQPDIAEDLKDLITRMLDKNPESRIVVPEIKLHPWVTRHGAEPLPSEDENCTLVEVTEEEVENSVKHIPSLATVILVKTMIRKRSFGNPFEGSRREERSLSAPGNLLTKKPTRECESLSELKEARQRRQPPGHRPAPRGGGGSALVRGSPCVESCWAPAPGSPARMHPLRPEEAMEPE
Sequence of Epithelial discoidin domain-containing receptor 1 ; DDR1 ; Q08345 (Q08345 whole entry, the tested form may be a part, canonical isoform): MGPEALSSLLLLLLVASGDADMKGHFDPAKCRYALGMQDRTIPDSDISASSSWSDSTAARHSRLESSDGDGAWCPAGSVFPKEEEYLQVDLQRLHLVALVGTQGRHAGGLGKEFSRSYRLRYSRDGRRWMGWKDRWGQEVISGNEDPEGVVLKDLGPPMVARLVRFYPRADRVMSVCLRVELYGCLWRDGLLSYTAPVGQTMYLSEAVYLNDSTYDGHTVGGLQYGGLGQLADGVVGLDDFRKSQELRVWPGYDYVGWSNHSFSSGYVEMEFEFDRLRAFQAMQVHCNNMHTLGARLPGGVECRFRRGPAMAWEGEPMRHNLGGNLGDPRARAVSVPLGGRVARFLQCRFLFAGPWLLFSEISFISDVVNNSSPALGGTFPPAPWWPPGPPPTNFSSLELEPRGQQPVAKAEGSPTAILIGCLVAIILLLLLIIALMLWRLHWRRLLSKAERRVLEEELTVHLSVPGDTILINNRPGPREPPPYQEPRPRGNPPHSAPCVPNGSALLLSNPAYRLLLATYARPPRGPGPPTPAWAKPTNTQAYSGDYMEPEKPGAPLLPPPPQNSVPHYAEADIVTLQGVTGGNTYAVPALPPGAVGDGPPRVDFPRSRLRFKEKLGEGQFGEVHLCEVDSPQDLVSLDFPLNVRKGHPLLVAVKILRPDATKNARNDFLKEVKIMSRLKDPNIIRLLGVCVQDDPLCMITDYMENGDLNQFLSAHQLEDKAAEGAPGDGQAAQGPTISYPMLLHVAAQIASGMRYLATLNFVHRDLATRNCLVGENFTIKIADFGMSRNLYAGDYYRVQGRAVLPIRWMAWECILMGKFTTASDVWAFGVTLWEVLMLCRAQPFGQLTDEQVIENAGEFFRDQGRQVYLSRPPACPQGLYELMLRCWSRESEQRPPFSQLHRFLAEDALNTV
Sequence of Isoform 2 of Glycogen synthase kinase-3 beta ; GSK3B ; P49841-2 (P49841 whole entry, canonical isoform): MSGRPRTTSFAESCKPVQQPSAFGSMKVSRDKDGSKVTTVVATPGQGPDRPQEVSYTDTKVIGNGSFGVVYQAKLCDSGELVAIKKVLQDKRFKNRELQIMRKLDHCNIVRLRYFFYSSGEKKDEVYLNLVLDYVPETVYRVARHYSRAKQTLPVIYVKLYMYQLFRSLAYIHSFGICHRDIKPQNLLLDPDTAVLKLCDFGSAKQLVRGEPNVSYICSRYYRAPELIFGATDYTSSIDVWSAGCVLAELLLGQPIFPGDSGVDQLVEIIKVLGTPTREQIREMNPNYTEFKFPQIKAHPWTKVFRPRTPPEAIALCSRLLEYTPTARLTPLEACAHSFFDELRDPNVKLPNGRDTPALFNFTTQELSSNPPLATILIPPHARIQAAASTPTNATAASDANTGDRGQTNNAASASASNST

- remaining activity at 10 µM [1, 17]: 90.5%
- remaining activity at 10 µM [2, 17]: 49.4%
- remaining activity at 10 µM [3, 17]: 26.5%
- remaining activity at 10 µM [4, 17]: 16.9%
- remaining activity at 10 µM [5, 17]: 116%
- remaining activity at 10 µM [6, 17]: 84.7%
- remaining activity at 10 µM [7, 17]: 102%
- remaining activity at 10 µM [8, 17]: 29.2%
- remaining activity at 10 µM [9, 17]: 37.2%
- remaining activity at 10 µM [10, 17]: 89.7%
- remaining activity at 10 µM [11, 17]: 48.9%
- remaining activity at 10 µM [12, 17]: 11.9%
- remaining activity at 10 µM [13, 17]: 34.1%
- remaining activity at 10 µM [14, 17]: 5.28%
- remaining activity at 10 µM [15, 17]: 86.2%
- remaining activity at 10 µM [16, 17]: 110%
Compound: COc1cc(F)ccc1-c1cc(Nc2cc(CS(C)(=N)=O)ccn2)ncc1F (centres unmarked) [BAY-1251152]

- remaining activity at 10 µM [1, 18]: 97.8%
- remaining activity at 10 µM [2, 18]: 66.1%
- remaining activity at 10 µM [3, 18]: 106%
- remaining activity at 10 µM [4, 18]: 29.6%
- remaining activity at 10 µM [5, 18]: 114%
- remaining activity at 10 µM [6, 18]: 83.6%
- remaining activity at 10 µM [7, 18]: 24.3%
- remaining activity at 10 µM [8, 18]: 50.1%
- remaining activity at 10 µM [9, 18]: 78.3%
- remaining activity at 10 µM [10, 18]: 99.5%
- remaining activity at 10 µM [11, 18]: 56%
- remaining activity at 10 µM [12, 18]: 7.95%
- remaining activity at 10 µM [13, 18]: 31.4%
- remaining activity at 10 µM [14, 18]: 3.48%
- remaining activity at 10 µM [15, 18]: 24%
- remaining activity at 10 µM [16, 18]: 117%
Compound: COc1cc(F)ccc1-c1ncnc(Nc2cccc(C[S@](C)(=N)=O)c2)n1 [BAY-1143572]
